Results on 74 molecules are retold here after patent US11414425B2 (priority 2018, dated 2022).

Molecules are shown by their SMILES. Read-outs that look alike come from different tables or passages of the source.

The assay addresses α5β3γ2 GABAA receptors (Homo sapiens, UniProt P18507+P31644). In words: [3H]Ro15-1788 binding, membranes of Ltk cells stably expressing α5β3γ2 GABAA receptors.
[1] abbreviates: ranges, inhibition of [3H]Ro15-1788 binding.

The Ki is the equilibrium dissociation constant of an inhibitor or competing ligand from its target. A higher Ki goes with weaker binding.

Chain of α5β3γ2 GABAA receptors (P31644 32-462): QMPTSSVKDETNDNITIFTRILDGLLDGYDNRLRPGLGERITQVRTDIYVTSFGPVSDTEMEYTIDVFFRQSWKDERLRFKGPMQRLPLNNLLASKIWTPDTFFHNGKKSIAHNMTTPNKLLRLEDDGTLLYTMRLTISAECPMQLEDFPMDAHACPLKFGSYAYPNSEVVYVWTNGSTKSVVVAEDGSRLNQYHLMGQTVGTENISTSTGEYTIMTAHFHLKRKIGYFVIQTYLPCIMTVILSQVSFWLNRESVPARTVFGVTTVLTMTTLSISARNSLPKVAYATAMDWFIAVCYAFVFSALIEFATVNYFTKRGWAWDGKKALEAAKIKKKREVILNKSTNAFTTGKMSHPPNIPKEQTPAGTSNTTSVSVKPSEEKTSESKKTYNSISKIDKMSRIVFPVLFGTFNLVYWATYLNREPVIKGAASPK
Chain of α5β3γ2 GABAA receptors (P28472 26-473 partner): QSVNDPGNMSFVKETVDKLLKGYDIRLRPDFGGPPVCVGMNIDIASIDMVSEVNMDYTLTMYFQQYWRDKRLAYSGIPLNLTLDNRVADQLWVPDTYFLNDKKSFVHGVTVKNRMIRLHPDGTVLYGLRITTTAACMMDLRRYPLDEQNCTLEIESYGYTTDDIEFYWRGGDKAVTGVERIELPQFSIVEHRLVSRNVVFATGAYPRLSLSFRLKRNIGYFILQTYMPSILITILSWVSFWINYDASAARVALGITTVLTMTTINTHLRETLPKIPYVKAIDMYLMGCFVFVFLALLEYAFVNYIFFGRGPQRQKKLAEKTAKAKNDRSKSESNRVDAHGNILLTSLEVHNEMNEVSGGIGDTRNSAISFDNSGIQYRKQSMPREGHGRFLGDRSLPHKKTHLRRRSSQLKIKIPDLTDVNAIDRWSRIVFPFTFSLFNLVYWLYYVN
Chain of α5β3γ2 GABAA receptors (P18507 40-475): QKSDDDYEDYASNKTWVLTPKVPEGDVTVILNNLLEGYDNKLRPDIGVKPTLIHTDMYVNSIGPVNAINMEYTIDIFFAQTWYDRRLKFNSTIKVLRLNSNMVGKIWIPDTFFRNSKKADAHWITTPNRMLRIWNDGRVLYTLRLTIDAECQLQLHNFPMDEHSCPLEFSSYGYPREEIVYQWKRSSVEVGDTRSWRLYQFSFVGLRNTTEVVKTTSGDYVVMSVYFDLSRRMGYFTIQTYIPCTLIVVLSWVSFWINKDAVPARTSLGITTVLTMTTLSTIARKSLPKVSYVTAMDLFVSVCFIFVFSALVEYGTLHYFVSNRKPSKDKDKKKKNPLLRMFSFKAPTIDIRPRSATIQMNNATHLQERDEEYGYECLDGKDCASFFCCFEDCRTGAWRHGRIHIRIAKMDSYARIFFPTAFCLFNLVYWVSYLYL

For the molecule `Clc1ccc([C@@H]2CN=C(c3ncn4c3Cc3cnnn3-c3cc(Cl)ccc3-4)O2)cc1` [Compound 719], the Ki under setting [1] is less than 100 nM. In the case of `Clc1cccc(COCc2ncn3c2Cc2cnnn2-c2cc(Cl)ccc2-3)c1` [Compound 542], the inhibition constant (Ki) fell in the range of 100 to 1000 nM. Under setting [1], `COCc1nnn2c1Cc1c(C3=NC[C@@H](c4ccc(Cl)cc4)O3)ncn1-c1ccc(Cl)cc1-2` [Compound 634] registered an inhibition constant (Ki) of less than 100 nM. Consider `COc1ccc(C#Cc2ncn3c2Cc2cnnn2-c2cc(C(F)(F)F)ccc2-3)nc1` [Compound 554], for which the Ki under setting [1] is less than 100 nM. In turn, `COc1ccc2c(c1)-n1nncc1Cc1c(-c3cn(-c4ccccc4)nn3)ncn1-2` [Compound 524] had a Ki of 100 to 1000 nM. Under setting [1], `Fc1cccc(OCc2ncn3c2Cc2cnnn2-c2cc(Cl)ccc2-3)c1` [Compound 546] showed a Ki of less than 100 nM. Take `COCc1nnc2n1Cc1c(C#Cc3ccc(F)cn3)ncn1-c1ccc(OC)cc1-2` [Compound 585]: the Ki under setting [1] was less than 100 nM. On the same count and under the same terms, under `COCc1nnc2n1Cc1c(C#Cc3ncc(OC)cn3)ncn1-c1ccc(OC)cc1-2` [Compound 593] stands less than 100 nM; under `COCc1nnc2n1Cc1c(C#Cc3ccc(Cl)cn3)ncn1-c1ccc(Cl)cc1-2` [Compound 579], less than 100 nM; under `CCc1cncc(C#Cc2ncn3c2Cn2c(COC)nnc2-c2cc(OC)ccc2-3)c1` [Compound 599], less than 100 nM. Still for that read-out and setting: next, `COCc1nnc2n1Cc1c(C#Cc3ccc(Cl)cn3)ncn1-c1ccc(OC)cc1-2` [Compound 591]: less than 100 nM; `COCc1nnc2n1Cc1c(C#Cc3ccc(OC)c(F)n3)ncn1-c1ccc(OC)cc1-2` [Compound 583]: 100 to 1000 nM. The molecule `Cn1ccc(C#Cc2ncn3c2Cc2cnnn2-c2cc(Cl)ccc2-3)n1` [Compound 661] returned a Ki of less than 100 nM. Still for that read-out and setting: next, `Clc1ccc2c(c1)-n1nncc1Cc1c(C#Cc3cnc4occc4c3)ncn1-2` [Compound 658]: less than 100 nM; `COc1ccc(C#Cc2ncn3c2Cc2cnnn2-c2cc(Cl)ccc2-3)nc1` [Compound 532]: less than 100 nM. Under setting [1], `COCc1nnc2n1Cc1c(C#Cc3ccc(-n4cccc4)cc3)ncn1-c1ccc(OC)cc1-2` [Compound 713] displayed a Ki of less than 100 nM. Still for that read-out and setting: under `COCc1nnc2n1Cc1c(C#Cc3ccc(F)cn3)ncn1-c1ccc(Cl)cc1-2` [Compound 572] stands less than 100 nM.

Regarding `COCc1nnn2c1Cc1c(C#Cc3cnc(OC)s3)ncn1-c1ccc(OC)cc1-2` [Compound 647], the Ki was less than 100 nM. `COc1ccc2c(c1)-n1nncc1Cc1c(C#Cc3ccc(C(F)(F)F)cn3)ncn1-2` [Compound 529]: under setting [1], the Ki lay within 100 to 1000 nM.

Consider `Cc1noc(-c2ncn3c2Cc2c(Cc4ccc(F)cc4)nnn2-c2cc(Cl)ccc2-3)n1` [Compound 479], for which the Ki was less than 100 nM.

Molecule `COCc1nnc2n1Cc1c(C#Cc3ccc(C#N)cn3)ncn1-c1ccc(Cl)cc1-2` [Compound 577] registered a Ki under setting [1] of 100 to 1000 nM. The same measure, in the same setting: next, `Cc1nc(-c2ncn3c2Cc2c(Cc4ccc(F)cc4)nnn2-c2cc(Cl)ccc2-3)no1` [Compound 496]: less than 100 nM. As to `Fc1cccc(Cc2nnn3c2Cc2c(-c4nc(-c5ccccc5)no4)ncn2-c2ccc(OC(F)F)cc2-3)c1` [Compound 552], under setting [1], the Ki was in the range of 100 to 1000 nM. Consider `Fc1ccc(Cc2nnn3c2Cc2c(-c4ncco4)ncn2-c2ccc(OC(F)(F)F)cc2-3)cc1` [Compound 495], for which, under setting [1], the Ki was in the range of 100 to 1000 nM. Take `COCc1nnc2n1Cc1c(C#Cc3cnc(C)nc3)ncn1-c1ccc(OC)cc1-2` [Compound 594]: the inhibition constant (Ki) under setting [1] is 100 to 1000 nM.

Under setting [1], `COCc1nnc2n1Cc1c(C#Cc3ccc(C#N)cn3)ncn1-c1ccc(OC)cc1-2` [Compound 590] gave a Ki of 100 to 1000 nM. Turning to `CC(C)c1noc(-c2ncn3c2Cc2c(Cc4ccc(F)cc4)nnn2-c2cc(OC(F)(F)F)ccc2-3)n1` [Compound 483], under setting [1], the Ki was less than 100 nM. For `COc1n[nH]cc1C#Cc1ncn2c1Cc1cnnn1-c1cc(Cl)ccc1-2` [Compound 662], the Ki is less than 100 nM. Still for that read-out and setting: next, `COc1ccc2c(c1)-n1nncc1Cc1c(C3=NCC(c4cccnc4)O3)ncn1-2` (racemic) [Compound 691]: less than 100 nM.

Under setting [1], `Fc1ccc(-n2cc(-c3ncn4c3Cc3cnnn3-c3cc(Cl)ccc3-4)nn2)cc1` [Compound 525] returned a Ki of less than 100 nM. Regarding `Clc1ccc2c(c1)-n1nncc1Cc1c(COc3ccccc3)ncn1-2` [Compound 548], the Ki was less than 100 nM. Regarding `COCc1nnc2n1Cc1c(C#Cc3ccc(OCC4CC4)nc3)ncn1-c1ccc(Cl)cc1-2` [Compound 700], the inhibition constant Ki under setting [1] was less than 100 nM. As for `CC1(C)OC(c2ncn3c2Cc2cnnn2-c2cc(OC(F)F)ccc2-3)=N[C@H]1c1ccccc1` [Compound 626], the Ki under setting [1] fell in the range of 100 to 1000 nM. The same measure, in the same setting: next, `COCc1nnc2n1Cc1c(C#Cc3ccc(SC)nc3)ncn1-c1ccc(OC)cc1-2` [Compound 665]: 100 to 1000 nM; `COCc1nnc2n1Cc1c(C#Cc3ccc4nccn4c3)ncn1-c1ccc(OC)cc1-2` [Compound 684]: 100 to 1000 nM.

With `FC(F)(F)c1ccc2c(c1)-n1nncc1Cc1c(C#Cc3ccc(Cl)cc3)ncn1-2` [Compound 502], under setting [1], the Ki was less than 100 nM.

Under setting [1], `COCc1nnc2n1Cc1c(C#Cc3cc(C)ccn3)ncn1-c1ccc(OC)cc1-2` [Compound 564] had a Ki of 100 to 1000 nM. Still for that read-out and setting: under `COc1ccc(C#Cc2ncn3c2Cc2cnnn2-c2cc(OC(F)(F)F)ccc2-3)cc1` [Compound 497] stands less than 100 nM; under `COc1ncc(C#Cc2ncn3c2Cc2cnnn2-c2cc(Cl)ccc2-3)s1` [Compound 622], less than 100 nM; under `COCc1nnn2c1Cc1c(C#Cc3ccnn3C)ncn1-c1ccc(Cl)cc1-2` [Compound 642], less than 100 nM. Take `CC(C)c1noc(-c2ncn3c2Cc2c(Cc4ccc(F)cc4)nnn2-c2cc(Cl)ccc2-3)n1` [Compound 489]: the Ki under setting [1] is less than 100 nM. For `COCc1nnn2c1Cc1c(C#Cc3ccn(C)n3)ncn1-c1ccc(Cl)cc1-2` [Compound 643], under setting [1], the Ki was less than 100 nM.

Under setting [1], `COCc1nnc2n1Cc1c(C#Cc3cnc(C)nc3)ncn1-c1ccc(Cl)cc1-2` [Compound 573] yielded a Ki of 100 to 1000 nM.

`Cn1nccc1C#Cc1ncn2c1Cc1cnnn1-c1cc(Cl)ccc1-2` [Compound 660] yielded a Ki under setting [1] of less than 100 nM. The same measure, in the same setting: next, `COCc1nnc2n1Cc1c(C#Cc3cccc(OC)n3)ncn1-c1ccc(Cl)cc1-2` [Compound 611]: less than 100 nM. Same read-out and setting: under `COCc1nnc2n1Cc1c(C#Cc3c[nH]nc3OC)ncn1-c1ccc(OC)cc1-2` [Compound 657] stands less than 100 nM; under `COCc1nnc2n1Cc1c(C#Cc3cncnc3)ncn1-c1ccc(Cl)cc1-2` [Compound 569], less than 100 nM; under `COCc1nnc2n1Cc1c(C#Cc3ccc(C)nc3)ncn1-c1ccc(Cl)cc1-2` [Compound 556], 100 to 1000 nM.

As for `COCc1nnc2n1Cc1c(-c3nc(C)no3)ncn1-c1ccc(-c3ccncc3)cc1-2` [Compound 468], the Ki under setting [1] is greater than 1000 nM.

`COc1ccc(C#Cc2ncn3c2Cc2cnnn2-c2cc(Cl)ccc2-3)cn1` [Compound 533] gave a Ki under setting [1] of less than 100 nM.

As for `CCCc1noc(-c2ncn3c2Cc2c(Cc4ccc(F)cc4)nnn2-c2cc(OC(F)(F)F)ccc2-3)n1` [Compound 486], the Ki under setting [1] is less than 100 nM.

Under setting [1], `CCOc1ccc(C#Cc2ncn3c2Cn2c(COC)nnc2-c2cc(Cl)ccc2-3)cn1` [Compound 709] had a Ki of 100 to 1000 nM.

As for `COCc1nnc2n1Cc1c(C#Cc3c[nH]nc3OC)ncn1-c1ccc(Cl)cc1-2` [Compound 664], the Ki under setting [1] is less than 100 nM. On the same count and under the same terms, next, `COCc1nnc2n1Cc1c(C#Cc3cccc(C)n3)ncn1-c1ccc(OC)cc1-2` [Compound 598]: less than 100 nM; `COc1ccc2c(c1)-c1nnc(COC(F)F)n1Cc1c(C#Cc3ccc(OC)nc3)ncn1-2` [Compound 620]: less than 100 nM. With `COCc1nnc2n1Cc1c(C#Cc3cnc(C)cn3)ncn1-c1ccc(OC)cc1-2` [Compound 588], the Ki under setting [1] is less than 100 nM. Molecule `COc1ccc2c(c1)-n1nncc1Cc1c(C3=NC[C@@H](c4cccc(F)c4)O3)ncn1-2` [Compound 692] showed a Ki of less than 100 nM. In the case of `COCc1nnc2n1Cc1c(C#Cc3cnc(OC)cn3)ncn1-c1ccc(Cl)cc1-2` [Compound 578], the inhibitory constant (Ki) under setting [1] is less than 100 nM. `Clc1ccc2c(c1)-n1nncc1Cc1c(C3=NCC(c4ccncc4)O3)ncn1-2` (centres unmarked) [Compound 629]: the Ki under setting [1] is less than 100 nM.

`COCc1nnc2n1Cc1c(C#Cc3ccc(OC(F)(F)F)cn3)ncn1-c1ccc(OC)cc1-2` [Compound 613] registered a Ki under setting [1] of less than 100 nM. Regarding `C#Cc1ccc2c(c1)-c1nnc(COC)n1Cc1c(C3=N[C@H](CC(C)C)CO3)ncn1-2` [Compound 280], under setting [1], the inhibitory constant (Ki) was less than 100 nM. The same measure, in the same setting: under `CC(C)c1noc(-c2ncn3c2Cc2c(Cc4cccc(F)c4)nnn2-c2cc(C(F)(F)F)ccc2-3)n1` [Compound 487] stands 100 to 1000 nM; under `COCc1nnc2n1Cc1c(C#Cc3ccc(OC(F)(F)F)cn3)ncn1-c1ccc(Cl)cc1-2` [Compound 580], less than 100 nM.

Turning to `COc1ccc2c(c1)-n1nncc1Cc1c(C#Cc3ccc(OC)nn3)ncn1-2` [Compound 694], the inhibitory constant (Ki) under setting [1] is less than 100 nM. Still for that read-out and setting: under `COCc1nnc2n1Cc1c(-c3nc(C)no3)ncn1-c1cccc(OC)c1-2` [Compound 472] stands 100 to 1000 nM. In turn, `Cc1ncc(C#Cc2ncn3c2Cc2cnnn2-c2cc(Cl)ccc2-3)[nH]1` [Compound 659] registered an inhibition constant Ki of less than 100 nM. With `Fc1ccc(OCc2ncn3c2Cc2cnnn2-c2cc(Cl)ccc2-3)cc1` [Compound 545], the Ki under setting [1] was less than 100 nM. The same measure, in the same setting: next, `CC(C)c1noc(-c2ncn3c2Cc2c(Cc4ccc(F)cc4)nnn2-c2cc(C(F)(F)F)ccc2-3)n1` [Compound 490]: less than 100 nM. On the same count and under the same terms, under `COc1ccc2c(c1)-n1nncc1Cc1c(C#Cc3cnc(OC)s3)ncn1-2` [Compound 621] stands less than 100 nM; under `COCc1nnc2n1Cc1c(C#Cc3nc(C)cs3)ncn1-c1ccc(OC)cc1-2` [Compound 602], less than 100 nM.

In the case of `CCOC(=O)c1ncn2c1Cc1c(Cc3ccccc3Cl)nnn1-c1cc(C)ccc1-2` [Compound 54], the Ki under setting [1] is less than 100 nM.

On to `COCc1nnc2n1Cc1c(C#Cc3cnc(OC)nc3)ncn1-c1ccc(OC)cc1-2` [Compound 584], for which the Ki under setting [1] was in the range of 100 to 1000 nM.

Turning to `COCc1nnc2n1Cc1c(C#Cc3ncc(C)s3)ncn1-c1ccc(OC)cc1-2` [Compound 601], the Ki under setting [1] is less than 100 nM. In turn, `Clc1ccc([C@H]2CN=C(c3ncn4c3Cc3cnnn3-c3cc(Cl)ccc3-4)O2)cc1` [Compound 720] had a Ki under setting [1] of less than 100 nM.
